Data: patent US20110105515A1, “TARGETING THE ONCOPROTEIN NUCLEOPHOSMIN” (President and Fellows of Harvard College, priority 2007, published 2011)

Legend:
K-562 = K-562 (Leukemia), 48 hours, SRB
OVCAR-3 = OVCAR-3 (Ovarian Cancer), 48 hours, SRB
DU-145 = DU-145 (Prostate Cancer), 48 hours, SRB
A498 = A498 (Renal Cancer), 48 hours, SRB
HT29 = HT29 (Colon Cancer), 48 hours, SRB
BT-549 = BT-549 (Breast Cancer), 48 hours, SRB
SW-620 = SW-620 (Colon Cancer), 48 hours, SRB
SK-MEL-2 = SK-MEL-2 (Melanoma), 48 hours, SRB
SF-539 = SF-539 (CNS Cancer), 48 hours, SRB
SR = SR (Leukemia), 48 hours, SRB
MDA-MB-231/ATCC = MDA-MB-231/ATCC (Breast Cancer), 48 hours, SRB
SN12C = SN12C (Renal Cancer), 48 hours, SRB
ACHN = ACHN (Renal Cancer), 48 hours, SRB
HS578T = HS578T (Breast Cancer), 48 hours, SRB
786-0 = 786-0 (Renal Cancer), 48 hours, SRB
HL-60(TB) = HL-60(TB) (Leukemia), 48 hours, SRB
IGROV1 = IGROV1 (Ovarian Cancer), 48 hours, SRB
U251 = U251 (CNS Cancer), 48 hours, SRB
SNB-75 = SNB-75 (CNS Cancer), 48 hours, SRB
CCRF-CEM = CCRF-CEM (Leukemia), 48 hours, SRB
MALME-3M = MALME-3M (Melanoma), 48 hours, SRB
RPMI-8226 = RPMI-8226 (Leukemia), 48 hours, SRB
RXF 393 = RXF 393 (Renal Cancer), 48 hours, SRB
MCF7 = MCF7 (Breast Cancer), 48 hours, SRB
PC-3 = PC-3 (Prostate Cancer), 48 hours, SRB
UO-31 = UO-31 (Renal Cancer), 48 hours, SRB
UACC-257 = UACC-257 (Melanoma), 48 hours, SRB
SNB-19 = SNB-19 (CNS Cancer), 48 hours, SRB
UACC62 = UACC62 (Melanoma), 48 hours, SRB
NCI-H226 = NCI-H226 (Non-Small Cell Lung Cancer), 48 hours, SRB
M14 = M14 (Melanoma), 48 hours, SRB
OVCAR-8 = OVCAR-8 (Ovarian Cancer), 48 hours, SRB

## CN(C)c1cccc2c(S(=O)(=O)NCCCCCCCCCCOc3ccc4c(c3)[N+]([O-])=C3C4=C[C@@]45NC(=O)C6(CCCN6C4=O)CC5C3(C)C)cccc12 (stereo partly shown) [Dansyl Analogue]
K-562
  TGI: 64400 nM
OVCAR-3
  GI50: 201 nM
  TGI: 413 nM
OVCAR-3; read-out: LC50
  CC50: 849 nM
DU-145
  GI50: 271 nM
  TGI: 706 nM
DU-145; read-out: LC50
  CC50: 2450 nM
A498
  GI50: 250 nM
  TGI: 1010 nM
A498; read-out: LC50
  CC50: 4400 nM
HT29
  GI50: 454 nM
  TGI: 1510 nM
HT29; read-out: LC50
  CC50: 3960 nM
BT-549
  GI50: 515 nM
  TGI: 6730 nM
BT-549; read-out: LC50
  CC50: > 100000 nM
SW-620
  GI50: 266 nM
SK-MEL-2
  GI50: 1070 nM
  TGI: 3230 nM
SK-MEL-2; read-out: LC50
  CC50: 9820 nM
SF-539
  GI50: 215 nM
  TGI: 545 nM
SF-539; read-out: LC50
  CC50: 1890 nM
SR
  GI50: 371 nM
  TGI: 1940 nM
SR; read-out: LC50
  CC50: 23700 nM
MDA-MB-231/ATCC
  GI50: 242 nM
  TGI: 584 nM
MDA-MB-231/ATCC; read-out: LC50
  CC50: 40500 nM
SN12C
  GI50: 401 nM
  TGI: 6810 nM
SN12C; read-out: LC50
  CC50: 31700 nM
ACHN
  GI50: 736 nM
  TGI: 2700 nM
ACHN; read-out: LC50
  CC50: 8560 nM
HS578T
  GI50: 355 nM
  TGI: 36900 nM
HS578T; read-out: LC50
  CC50: > 100000 nM
786-0
  GI50: 325 nM
  TGI: 1070 nM
786-0; read-out: LC50
  CC50: 5210 nM
HL-60(TB)
  GI50: 211 nM
  TGI: 1160 nM
HL-60(TB); read-out: LC50
  CC50: > 100000 nM
IGROV1
  GI50: 272 nM
  TGI: 695 nM
IGROV1; read-out: LC50
  CC50: 3390 nM
U251
  GI50: 175 nM
  TGI: 334 nM
U251; read-out: LC50
  CC50: 640 nM
SNB-75
  GI50: 273 nM
  TGI: 930 nM
SNB-75; read-out: LC50
  CC50: 3430 nM
CCRF-CEM
  GI50: 246 nM
  TGI: >100000 nM
CCRF-CEM; read-out: LC50
  CC50: > 100000 nM
MALME-3M
  GI50: 426 nM
  TGI: 2110 nM
RPMI-8226
  GI50: 282 nM
  TGI: >100000 nM
RPMI-8226; read-out: LC50
  CC50: > 100000 nM
RXF 393
  GI50: 611 nM
  TGI: 5920 nM
RXF 393; read-out: LC50
  CC50: 44400 nM
MCF7
  GI50: 232 nM
  TGI: 724 nM
MCF7; read-out: LC50
  CC50: 2610 nM
PC-3
  GI50: 334 nM
  TGI: 1820 nM
PC-3; read-out: LC50
  CC50: 41700 nM
UO-31
  GI50: 480 nM
  TGI: 2080 nM
UO-31; read-out: LC50
  CC50: 6480 nM
UACC-257
  GI50: 1020 nM
  TGI: 2810 nM
UACC-257; read-out: LC50
  CC50: 7740 nM
SNB-19
  GI50: 359 nM
  TGI: 1440 nM
SNB-19; read-out: LC50
  CC50: 4100 nM
UACC62
  GI50: 565 nM
  TGI: 1880 nM
UACC62; read-out: LC50
  CC50: 4880 nM
NCI-H226
  GI50: 1030 nM
  TGI: 3030 nM
NCI-H226; read-out: LC50
  CC50: 8930 nM
M14
  GI50: 423 nM
  TGI: 2030 nM
M14; read-out: LC50
  CC50: 13600 nM
OVCAR-8
  GI50: 759 nM
  TGI: 11000 nM
OVCAR-8; read-out: LC50
  CC50: > 100000 nM
